Assays:
[1] = Cytotoxicity in mouse spleen macrophages assessed as phospholipidosis; conditions: Macrophage
[2] = Oral bioavailability in rat; type: ADME, organism-based; conditions: in vivo
[3] = Volume of distribution at steady state in dog at 1 mg/kg, iv and 1 mg/kg, po; type: ADME, organism-based, Canis lupus familiaris; conditions: in vivo, read-out: Vdss
[4] = Clearance in dog at 1 mg/kg, iv and 1 mg/kg, po; type: ADME, organism-based, Canis lupus familiaris; conditions: in vivo
[5] = Half life in dog at 1 mg/kg, iv and 1 mg/kg, po; type: ADME, organism-based, Canis lupus familiaris; conditions: in vivo
[6] = Apparent permeability across basolateral to apical side in human Caco2 cells at 10 uM; type: ADME, cell-based; conditions: Caco-2
[7] = Intrinsic clearance in Sprague-Dawley rat hepatocytes assessed per 10^6 cells; type: ADME, cell-based, Hepatocyte; conditions: Sprague-Dawley, read-out: CLH
[8] = Oral bioavailability in dog; type: ADME, organism-based, Canis lupus familiaris; conditions: in vivo
[9] = Intrinsic clearance in human hepatocytes assessed per 10^6 cells; type: ADME, cell-based, Hepatocyte; conditions: read-out: CLH
[10] = target: Macrophage metalloelastase (Homo sapiens, UniProt P39900); experiment: Inhibition of MMP12 using Mca-Pro-cyclohexyl-Ala-Gly-Nva-His-Ala- Dap(Dnp)-NH2 as substrate by fluorometric analysis
[11] = Half life in rat at 2 mg/kg, iv; type: ADME, organism-based; design: dose 2 mg/kg, route intravenous; conditions: in vivo
[12] = Renal elimination in rat at 2 mg/kg, iv; type: ADME, organism-based; design: dose 2 mg/kg, route intravenous; conditions: urine, read-out: Ae
[13] = Fraction unbound in dog; type: ADME, organism-based, Canis lupus familiaris; conditions: in vivo
Collagenase 3 = Collagenase 3 (Homo sapiens, UniProt P45452); experiment: Inhibition of recombinant human MMP13 using Mca-Pro-cyclohexyl-Ala-Gly-Nva-His-Ala- Dap(Dnp)-NH2 as substrate by fluorometric analysis; conditions: read-out: IC50
[14] = Intrinsic clearance in human microsomes; type: ADME, Microsome
[15] = Fraction unbound in rat; type: ADME, organism-based; conditions: in vivo
[16] = Volume of distribution at steady state in rat at 2 mg/kg, iv; type: ADME, organism-based; design: dose 2 mg/kg, route intravenous; conditions: in vivo, read-out: Vdss
[17] = target: 72 kDa type IV collagenase (Homo sapiens, UniProt P08253); experiment: Inhibition of MMP2 using Mca-Pro-cyclohexyl-Ala-Gly-Nva-His-Ala- Dap(Dnp)-NH2 as substrate by fluorometric analysis; conditions: read-out: IC50
[18] = Thermodynamic solubility of the compound; conditions: Therm_solubility
[19] = Clearance in rat at 2 mg/kg, iv; type: ADME, organism-based; design: dose 2 mg/kg, route intravenous; conditions: in vivo
[20] = Fraction unbound in human; type: ADME, organism-based; conditions: in vivo
[21] = target: T1, A disintegrin and metalloproteinase with thrombospondin motifs 4 (Homo sapiens) (UniProt O75173); experiment: Inhibition of ADAM-TS4 using dimethoxyfluorescein-Ser-Pro-Leu-Ala-Gln-Ala- Val-Arg-ser-Ser-Arg-Cys-fluorescein as substrate
T1 sequence (whole entry): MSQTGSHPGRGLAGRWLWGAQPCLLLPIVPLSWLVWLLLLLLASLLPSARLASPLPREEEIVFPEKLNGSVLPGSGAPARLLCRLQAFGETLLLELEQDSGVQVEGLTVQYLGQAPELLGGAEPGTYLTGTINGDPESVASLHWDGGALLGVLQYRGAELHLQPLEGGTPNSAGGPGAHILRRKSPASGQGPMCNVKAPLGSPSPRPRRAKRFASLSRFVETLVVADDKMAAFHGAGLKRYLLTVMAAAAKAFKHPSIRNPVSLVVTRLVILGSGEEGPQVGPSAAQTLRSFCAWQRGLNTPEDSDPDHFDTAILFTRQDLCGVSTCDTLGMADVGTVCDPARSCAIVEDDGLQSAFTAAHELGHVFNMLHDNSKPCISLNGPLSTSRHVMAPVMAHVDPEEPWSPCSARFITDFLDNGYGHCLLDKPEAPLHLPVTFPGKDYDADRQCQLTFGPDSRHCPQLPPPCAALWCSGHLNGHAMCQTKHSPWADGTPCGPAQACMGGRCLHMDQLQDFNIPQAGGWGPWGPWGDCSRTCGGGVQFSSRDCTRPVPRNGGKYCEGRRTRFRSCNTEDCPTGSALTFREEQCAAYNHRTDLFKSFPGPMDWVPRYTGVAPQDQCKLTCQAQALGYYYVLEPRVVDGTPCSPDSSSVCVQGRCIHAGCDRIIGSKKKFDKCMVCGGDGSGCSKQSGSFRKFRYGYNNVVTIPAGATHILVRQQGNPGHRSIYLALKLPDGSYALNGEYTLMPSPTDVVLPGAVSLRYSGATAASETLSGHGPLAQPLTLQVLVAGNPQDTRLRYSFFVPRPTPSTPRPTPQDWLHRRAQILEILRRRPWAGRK

[22] = target: T2, A disintegrin and metalloproteinase with thrombospondin motifs 5 (Homo sapiens) (UniProt Q9UNA0); experiment: Inhibition of ADAM-TS5 using dimethoxyfluorescein-Ser-Pro-Leu-Ala-Gln-Ala- Val-Arg-ser-Ser-Arg-Cys-fluorescein as substrate
T2 sequence (whole entry): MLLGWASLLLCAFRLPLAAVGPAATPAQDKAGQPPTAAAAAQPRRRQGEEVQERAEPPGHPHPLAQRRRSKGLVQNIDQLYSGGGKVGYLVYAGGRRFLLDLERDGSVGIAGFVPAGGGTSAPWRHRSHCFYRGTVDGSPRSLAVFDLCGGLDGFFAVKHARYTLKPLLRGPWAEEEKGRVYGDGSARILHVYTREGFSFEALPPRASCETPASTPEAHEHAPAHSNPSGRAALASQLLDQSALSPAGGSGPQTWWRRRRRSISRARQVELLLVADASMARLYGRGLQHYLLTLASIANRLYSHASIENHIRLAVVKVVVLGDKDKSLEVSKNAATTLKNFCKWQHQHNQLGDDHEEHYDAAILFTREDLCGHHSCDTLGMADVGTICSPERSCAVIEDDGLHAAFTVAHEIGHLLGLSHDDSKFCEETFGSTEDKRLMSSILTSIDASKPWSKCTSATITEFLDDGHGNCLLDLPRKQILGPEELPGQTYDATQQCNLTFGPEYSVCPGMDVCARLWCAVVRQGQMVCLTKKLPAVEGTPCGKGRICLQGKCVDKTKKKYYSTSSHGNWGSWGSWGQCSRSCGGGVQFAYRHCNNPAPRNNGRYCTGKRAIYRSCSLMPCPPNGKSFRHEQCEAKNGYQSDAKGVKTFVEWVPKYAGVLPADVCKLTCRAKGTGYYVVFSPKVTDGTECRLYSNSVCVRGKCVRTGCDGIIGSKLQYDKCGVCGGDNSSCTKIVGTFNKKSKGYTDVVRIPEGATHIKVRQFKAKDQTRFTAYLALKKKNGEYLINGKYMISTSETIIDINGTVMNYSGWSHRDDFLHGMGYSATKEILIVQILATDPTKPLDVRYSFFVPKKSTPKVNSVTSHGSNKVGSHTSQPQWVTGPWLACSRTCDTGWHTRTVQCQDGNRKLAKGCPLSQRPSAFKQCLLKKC

Sequence of Macrophage metalloelastase (P39900 whole entry): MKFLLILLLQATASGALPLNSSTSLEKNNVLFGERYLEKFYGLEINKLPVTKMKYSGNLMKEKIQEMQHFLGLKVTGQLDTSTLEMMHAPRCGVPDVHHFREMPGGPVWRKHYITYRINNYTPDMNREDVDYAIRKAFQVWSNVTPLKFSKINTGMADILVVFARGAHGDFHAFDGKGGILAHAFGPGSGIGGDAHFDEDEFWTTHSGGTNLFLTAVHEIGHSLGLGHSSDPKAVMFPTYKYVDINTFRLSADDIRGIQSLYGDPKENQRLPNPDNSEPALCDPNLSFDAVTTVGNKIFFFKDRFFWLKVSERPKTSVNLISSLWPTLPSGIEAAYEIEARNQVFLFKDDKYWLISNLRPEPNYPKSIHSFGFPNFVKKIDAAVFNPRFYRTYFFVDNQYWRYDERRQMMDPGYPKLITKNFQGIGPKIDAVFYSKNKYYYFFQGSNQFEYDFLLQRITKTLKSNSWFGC
Sequence of 72 kDa type IV collagenase (P08253 whole entry): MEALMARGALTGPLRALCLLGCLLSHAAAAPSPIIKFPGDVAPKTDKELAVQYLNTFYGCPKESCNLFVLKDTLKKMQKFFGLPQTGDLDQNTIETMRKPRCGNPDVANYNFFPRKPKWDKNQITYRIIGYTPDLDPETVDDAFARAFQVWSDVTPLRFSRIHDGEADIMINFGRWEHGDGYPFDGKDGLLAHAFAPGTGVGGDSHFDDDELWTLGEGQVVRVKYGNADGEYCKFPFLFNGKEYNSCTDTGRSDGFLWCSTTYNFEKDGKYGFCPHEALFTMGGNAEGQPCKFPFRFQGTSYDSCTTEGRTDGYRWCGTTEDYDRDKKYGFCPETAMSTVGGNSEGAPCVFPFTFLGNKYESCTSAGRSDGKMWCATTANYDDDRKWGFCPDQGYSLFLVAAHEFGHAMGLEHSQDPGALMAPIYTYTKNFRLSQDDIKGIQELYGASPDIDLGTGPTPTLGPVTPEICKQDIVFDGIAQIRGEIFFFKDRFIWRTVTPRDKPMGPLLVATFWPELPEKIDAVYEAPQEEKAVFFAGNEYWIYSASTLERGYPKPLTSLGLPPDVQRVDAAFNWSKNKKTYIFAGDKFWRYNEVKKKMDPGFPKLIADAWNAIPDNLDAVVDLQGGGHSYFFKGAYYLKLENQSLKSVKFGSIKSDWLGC

## CN1CCC(NC(=O)c2ccc(Oc3ccc(C#C[C@]4(O)CN5CCC4CC5)cc3)cc2)CC1
[1]
  EC50: 8 µM
[2]
  bioavailability: 2%
[3]
  Vd: 6.6 L/kg
[4]
  clearance: 3.6 mL/min/kg
[5]
  half-life: 23 h
[6]
  Papp B→A at 10 µM: 7.4 ×10⁻⁶ cm/s
[7]
  hepatocyte CLint: < 2 µL/min/1e6 cells
[8]
  bioavailability: 47%
[9]
  hepatocyte CLint: < 2 µL/min/1e6 cells
[10]; read-out: IC50
  IC50: > 8 µM
[10]; read-out: pIC50 (converted)
  IC50: 7.94 µM
[11]
  half-life: 10.1 h
[12]
  dose excreted: < 1%
[13]
  fraction unbound: 0.47
Collagenase 3
  IC50: 0.074 µM
[14]
  microsomal CLint: 2.6 µL/min/mg
[15]
  fraction unbound: 0.73
[16]
  Vd: 12.6 L/kg
[17]
  IC50: 7.3 µM
[18]
  solubility thermodynamic: > 2000 µM
[19]
  clearance: 16 mL/min/kg
[20]
  fraction unbound: 0.41
[21]
  INH: > 10 µM
[22]
  INH: > 10 µM

Reference: ChEMBL document CHEMBL1938343, “Lead optimisation of selective non-zinc binding inhibitors of MMP13. Part 2” (Bioorg Med Chem Lett, 2012)
